In US11453663B2, “Substituted propanamides as inhibitors of nucleases” (MASARYKOVA UNIVERZITA, priority 2018, dated 2022) one finds IC50 and inhibition data, which are given here for 13 compounds.

In one assay the target is MRE11 (Homo sapiens (Human), UniProt P49959). The assay is described as follows: HTS nuclease assay (fluorescence-quenched 5′ overhang DNA substrate cleavage). In kind it is biochemical. As to conditions: 18 nM MRE11, 40 nM DNA substrate, analysis at t=4 h. The protocol:
DNA Substrate Preparation
The DNA substrate is prepared by mixing the oligonucleotides listed below in a 1:1 ratio to reach a final concentration of 6 μM in a buffer containing 50 mM Tris pH 7.5, 100 mM NaCl and 8 mM MgCl2.
The mixture is heat for 3 min at 65° C. and let to cool down slowly to RT. Then it is stored at −20° C.
This substrate is a 5′ overhang, which is a preferred substrate of MRE11. […] The fluorescence increases upon substrate cleavage by MRE11, when separation of the two labels occur.
The conditions of the assay are as follows:
Total reaction volume: 5 μL
DNA substrate concentration in the reaction: 40 nM
Inhibitor concentration range tested: 7 nM-50 μM
Each plate contains a series of high and low signal control wells, where no compound is added:
High signal: MRE11+DNA substrate
Low signal: DNA substrate only
These are used during data evaluation.
Two Extra Assay Controls:
1) To check whether unwinding of DNA by the compounds alone occurs.
The DNA substrate [CY5+BBQ(650)] is mixed with the compounds with no protein present.
The CY5 single stranded oligo is mixed with the compounds with no protein present.
The layout of the plates is created by the in-house software (CZ-Openscreen Prague) and this information is transferred to the robotic HTS station.
The reaction is started by the addition of DNA and the reaction time is counted from that moment, including a 15 min delay. Ten timepoints are measured:
The assay data analysis was performed at t=4 h. This corresponds to the time when the reaction is close to its maximum.
The data analysis was performed using the in-house software (CZ-Openscreen Prague) to obtain IC50 for each compound.

The subject of the next assay is DR-GFP U2OS cells. Description: HR assay (GFP fluorescence by flow cytometry after I-SceI transfection). As to conditions: Homo sapiens, 25 μM inhibitor, 72 hours after transfection. Type of assay: cell-based. Here is the method:
DR-GFP U2OS cells (Methods in Molecular Biology 2012, 920, 379.) were transfected with 2.5 μg of I-SceI-expressing pCAGGS vector and treated with the inhibitors at 25 μM concentration. 72 hours after the transfection, the cells were trypsinized and resuspended in 3% BSA in PBS. GFP fluorescence detection was carried out using a BD FACSVerse flow cytometer and data analyzed with FlowJo software.
Background: A flow cytometer gives signals particle by particle.

MRE11, sequence (P49959 whole entry): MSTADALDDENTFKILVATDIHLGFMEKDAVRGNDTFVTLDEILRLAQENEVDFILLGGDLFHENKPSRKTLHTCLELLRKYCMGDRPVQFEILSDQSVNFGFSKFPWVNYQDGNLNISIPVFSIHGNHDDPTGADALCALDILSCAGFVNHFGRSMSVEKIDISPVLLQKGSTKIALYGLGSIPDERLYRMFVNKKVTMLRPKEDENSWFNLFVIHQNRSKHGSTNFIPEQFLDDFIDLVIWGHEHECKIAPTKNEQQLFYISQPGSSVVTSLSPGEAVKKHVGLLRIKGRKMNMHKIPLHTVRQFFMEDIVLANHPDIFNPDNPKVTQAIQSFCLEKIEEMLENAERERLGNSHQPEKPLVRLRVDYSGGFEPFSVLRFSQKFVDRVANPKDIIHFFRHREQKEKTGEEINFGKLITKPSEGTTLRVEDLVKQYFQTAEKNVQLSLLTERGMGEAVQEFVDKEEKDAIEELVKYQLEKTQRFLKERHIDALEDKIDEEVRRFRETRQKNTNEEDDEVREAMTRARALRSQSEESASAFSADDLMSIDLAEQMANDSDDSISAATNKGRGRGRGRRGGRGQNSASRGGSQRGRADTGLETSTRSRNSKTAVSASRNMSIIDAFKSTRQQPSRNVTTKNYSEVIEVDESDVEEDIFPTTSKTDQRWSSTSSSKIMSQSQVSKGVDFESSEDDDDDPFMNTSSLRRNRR

Consider `N#CC(Cc1ccc(O)c(O)c1)C(=O)Nc1nc(-c2ccc(Cl)c(Cl)c2)cs1` (stereo not shown) [Preparative Example 160, 2-cyano-N-(4-(3,4-dichlorophenyl)thiazol-2-yl)-3-(3,4-dihydroxyphenyl)propanamide], for which the IC50 against MRE11 was less than 2 µM. The compound further registered an inhibition at 25 µM in the assay on DR-GFP U2OS cells of 50 to 75%. For `COc1ccc(-c2csc(NC(=O)C(C#N)Cc3ccc(O)c(O)c3)n2)c(F)c1` (stereo not shown) [Preparative Example 173, 2-cyano-3-(3,4-dihydroxyphenyl)-N-(4-(2-fluoro-4-methoxyphenyl)thiazol-2-yl)propanamide] the same measures were less than 2 µM and greater than 75%.

In turn, `N#CC(Cc1ccc(O)c(O)c1)C(=O)Nc1nc(-c2ccccc2C(F)(F)F)cs1` (stereo not shown) [Preparative Example 159, 2-cyano-3-(3,4-dihydroxyphenyl)-N-(4-(2-(trifluoromethyl)phenyl)thiazol-2-yl)propanamide] showed an IC50 against MRE11 of 2 to 10 µM. In the assay with DR-GFP U2OS cells, this compound yielded an inhibition at 25 µM of less than 50%. The like results for `N#CC(Cc1cc(Cl)c(O)c(Cl)c1)C(=O)Nc1nc(-c2ccc3ccccc3c2)cs1` (stereo not shown) [Preparative Example 143, 2-cyano-3-(3,5-dichloro-4-hydroxyphenyl)-N-(4-(naphthalen-2-yl)thiazol-2-yl)propanamide] were, in that order, 2 to 10 µM and less than 50%. For `COc1ccnc(-c2csc(NC(=O)C(C#N)Cc3ccc(O)c(O)c3)n2)c1` (stereo not shown) [Preparative Example 167, 2-cyano-3-(3,4-dihydroxyphenyl)-N-(4-(4-methoxypyridin-2-yl)thiazol-2-yl)propanamide] the same measures were less than 2 µM and greater than 75%. For `N#CC(Cc1ccc(O)c(O)c1)C(=O)Nc1nc(-c2ccccc2)c(C2CCCCC2)s1` (stereo not shown) [Preparative Example 146, 2-cyano-N-(5-cyclohexyl-4-phenylthiazol-2-yl)-3-(3,4-dihydroxyphenyl)propanamide] the same measures were 2 to 10 µM and greater than 75%. Compound `N#CC(Cc1ccc(O)c(O)c1)C(=O)Nc1nc(-c2ccc(C(F)(F)F)cc2)cs1` (stereo not shown) [Preparative Example 132, 2-cyano-3-(3,4-dihydroxyphenyl)-N-(4-(4-(trifluoromethyl)phenyl)thiazol-2-yl)propanamide] yielded a half-maximal inhibitory concentration (IC50) on MRE11 of 2 to 10 µM. In the assay with DR-GFP U2OS cells, the inhibition at 25 µM is greater than 75%.

In turn, `N#CC(Cc1cc(C(F)(F)F)cc(C(F)(F)F)c1)C(=O)Nc1nc(-c2ccccc2)cs1` (stereo not shown) [Preparative Example 163, 3-(3,5-bis(trifluoromethyl)phenyl)-2-cyano-N-(4-phenylthiazol-2-yl)propanamide] registered an inhibition at 25 µM with DR-GFP U2OS cells greater than 75%. `Cc1ccccc1-c1csc(NC(=O)C(C#N)Cc2ccc(O)c(O)c2)n1` (stereo not shown) [Preparative Example 161, 2-cyano-3-(3,4-dihydroxyphenyl)-N-(4-(o-tolyl)thiazol-2-yl)propanamide] yielded an IC50 against MRE11 of 2 to 10 µM. In the assay with DR-GFP U2OS cells, this compound gave an inhibition at 25 µM of 50 to 75%. `N#CC(Cc1cc(Cl)c(O)c(Cl)c1)C(=O)Nc1nc(-c2ccccc2)c(-c2ccccc2)s1` (stereo not shown) [Preparative Example 134, 2-cyano-3-(3,5-dichloro-4-hydroxyphenyl)-N-(4,5-diphenylthiazol-2-yl)propanamide] yielded an IC50 against MRE11 of 2 to 10 µM. In the assay on DR-GFP U2OS cells, this compound returned an inhibition at 25 µM of less than 50%.

Compound `CC(c1ccc(O)c(O)c1)C(C#N)C(=O)Nc1nc(-c2ccccc2)cs1` (stereo not shown) [Preparative Example 177, 2-cyano-3-(3,4-dihydroxyphenyl)-N-(4-phenylthiazol-2-yl)butanamide] came in with an inhibition at 25 µM in the assay with DR-GFP U2OS cells of 50 to 75%. The same measure, in the same setting: the result for `CC(C)(C)c1ccc(-c2csc(NC(=O)C(C#N)Cc3cc(C(C)(C)C)c(O)c(C(C)(C)C)c3)n2)cc1` (stereo not shown) [Preparative Example 150, N-(4-(4-(tert-butyl)phenyl)thiazol-2-yl)-2-cyano-3-(3,5-di-tert-butyl-4-hydroxyphenyl)propanamide] reads greater than 75%; that for `CC(=O)Nc1ccc(CC(C#N)C(=O)Nc2nc(-c3ccccc3)cs2)cc1` (stereo not shown) [Preparative Example 128, 3-(4-acetamidophenyl)-2-cyano-N-(4-phenylthiazol-2-yl)propanamide], 50 to 75%.

One may read the IC50 as the concentration that inhibits the measured activity by half. The low end stands for higher potency, the high end for lower potency. By inhibition is commonly meant the change of the read-out against control, counted positive when it falls. Read a low inhibition as little suppression.
